Reference: US12528838B2, “Cyclic dominant negative competence stimulating peptide analogs and methods of treating Streptococcus pneumoniae infections” (priority 2019, dated 2026)
Bridge positions count the residues as written; N and C are the ends. Square brackets hold non-standard residues; d marks the D form. Peptide text beside a SMILES is read from it. Dap = NC[C@H](N)C(=O)O

Tests used:
[1] = Stability in mouse lungs (BAL fluid analysed by HPLC after intratracheal instillation); format: in vivo, CD1 mice; conditions: both sexes, CD1, cell-free bronchoalveolar lavage fluid (BALF), inhaled or intranasal, 400 ug, 400 μg intratracheally, FIG. 14B
Experimental: (§1) FIGS. 14A-14D. Pharmacological properties of dnCSPs. (FIG. 14A) CSPs were treated with trypsin/chymotrypsin and their degradation monitored by HPLC. (FIG. 14B) CD1 mice (3/cohort, males & females) were intratracheally instilled 400 μg of native or dnCSPs. Mice were bronchial alveolar lavaged (BAL) at indicated times, and cell free BAL fluid (BALF) were analyzed by HPLC. […] (FIGS. 14C-14D) CD1 mice (5/cohorts, males & females) were intratracheally inoculated with MTD doses of native and dnCSPs (200 μg-20 mg/kg). […] Lung sections (FIGS. 14C-14D) and other organs were H&E stained. b=bronchioles; v=vessels.

[2] = Proteolytic stability in trypsin/chymotrypsin solution, monitored by RP-HPLC; format: in vitro ADME
Experimental: FIG. 4E. […] All peptides were treated with trypsin/chymotrypsin (0.05 μg mL-1 enzyme concentration). RP-HPLC was used to monitor the progress of degradation. All peptides have a half-life about 3 hours. After 3 to 4 hours, some degradation product of CSP1-cyc-E1A(Dap6E10) start to precipitate out, resulting in the plateau in the curve.
as §1
The proteolytic stability of CSP1-E1A-cyc(Dap6E10) in Trypsin and Chymotrypsin solution was tested and the half-life measured. […] To test that, CSP1-E1A-des-K16K17-cyc(Dap6E10) was manually synthesized and evaluated its activity.
Pharmacological evaluation of lead cyclic dnCSPs. Before moving the most promising dnCSPs into mouse models, their pharmacological properties will be evaluated. As these are peptide-based drugs, first assessed are their metabolic stability. These assays will include prolonged incubation in physiologically-relevant buffers with varying pH values, stability towards degradation by trypsin and chymotrypsin, and stability in mouse lungs, plasma and serum to simulate in vivo proteolytic environments. Degradation of dnCSPs will be quantified using HPLC. […] The MTD will be defined as the maximum dose that causes a 15% loss of initial weight. […] Systemic toxicity will be assessed by performing blood chemistry and complete blood count (CBC) with differential. Major organs (e.g., liver, kidney, heart, lung, etc.) and sternum (to test genotoxicity) will be collected for histopathological and toxicological analysis. […]

ComD2 receptor = ComD2 receptor (Streptococcus pneumoniae serotype 4, UniProt A0A0H2US84); assay: cell-based; format: cell-based
ComD2 receptor, sequence (A0A0H2US84 entry or part of it): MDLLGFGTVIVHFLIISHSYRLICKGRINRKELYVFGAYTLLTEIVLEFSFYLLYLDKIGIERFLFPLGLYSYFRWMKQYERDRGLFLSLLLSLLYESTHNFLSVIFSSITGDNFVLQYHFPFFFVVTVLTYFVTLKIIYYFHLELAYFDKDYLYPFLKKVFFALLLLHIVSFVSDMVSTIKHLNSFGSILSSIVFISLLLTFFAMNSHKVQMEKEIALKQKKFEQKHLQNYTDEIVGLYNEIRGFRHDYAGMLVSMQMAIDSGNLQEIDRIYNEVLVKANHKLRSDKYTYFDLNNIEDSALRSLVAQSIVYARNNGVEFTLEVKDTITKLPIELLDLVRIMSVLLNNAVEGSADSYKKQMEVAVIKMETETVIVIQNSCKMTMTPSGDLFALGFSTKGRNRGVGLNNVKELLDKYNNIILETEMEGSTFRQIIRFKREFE
Excerpt: Biological evaluation of cyclic dnCSPs. […] All assays will be performed in triplicates and independently three times. Serial dilutions of dnCSPs will be conducted to determine the EC50 and IC50 values of promising dnCSPs through initial screening. Data from reporter assays will be analyzed using the GraphPad Prism software. The lead dnCSPs will be assessed for their therapeutic potential using multiple in vitro assays, including attenuation of ComX-induction (reporter systems), genetic transformation, allolysis (zymogram assays), and release of PLY (hemolysis & Western blots). Lastly, the pneumococcal competence system regulates biofilm formation, which is important for the pathogenesis of […]. The ability of the dnCSPs to inhibit biofilm formation will be evaluated after 24 hr of growth on 1% BSA coated coverslips placed in flat-bottom polystyrene tissue culture plates by staining with FilmTracer LIVE/DEAD Biofilm viability kit (Invitrogen, L10316), and visualized using a confocal microscope and Z-stacked to construct 3D-images.

ComD1 receptor = ComD1 receptor (Streptococcus pneumoniae serotype 2, UniProt A0A0H2ZM50); assay: cell-based; format: cell-based
ComD1 receptor, sequence (A0A0H2ZM50 entry or part of it): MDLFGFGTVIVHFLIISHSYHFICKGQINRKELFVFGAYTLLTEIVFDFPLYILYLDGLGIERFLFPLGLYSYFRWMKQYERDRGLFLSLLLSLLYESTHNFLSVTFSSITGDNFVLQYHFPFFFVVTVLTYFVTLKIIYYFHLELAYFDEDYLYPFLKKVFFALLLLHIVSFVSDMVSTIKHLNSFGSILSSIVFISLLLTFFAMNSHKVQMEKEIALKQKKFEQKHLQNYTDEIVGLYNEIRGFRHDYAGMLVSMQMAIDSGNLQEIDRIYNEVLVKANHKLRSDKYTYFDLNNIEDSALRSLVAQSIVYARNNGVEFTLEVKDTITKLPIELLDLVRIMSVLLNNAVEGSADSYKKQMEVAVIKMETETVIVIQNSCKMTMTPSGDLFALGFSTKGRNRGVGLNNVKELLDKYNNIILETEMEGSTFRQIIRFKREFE
Excerpt: Biological evaluation of cyclic dnCSPs. The cyclic dnCSPs will be assessed for inhibition of competence induction using the β-gal, lux (FIG. 11) or luc (FIG. 15) reporter systems we have optimized for the analysis of a large number of signal variants in 96-well plates. All assays will be performed in triplicates and independently three times. Serial dilutions of dnCSPs will be conducted to determine the EC50 and IC50 values of promising dnCSPs through initial screening. Data from reporter assays will be analyzed using the GraphPad Prism software. The lead dnCSPs will be assessed for their therapeutic potential using multiple in vitro assays, including attenuation of ComX-induction (reporter systems), genetic transformation, allolysis (zymogram assays), and release of PLY (hemolysis & Western blots). Lastly, the pneumococcal competence system regulates biofilm formation, which is important for the pathogenesis of […]. The ability of the dnCSPs to inhibit biofilm formation will be evaluated after 24 hr of growth on 1% BSA coated coverslips placed in flat-bottom polystyrene tissue culture plates by staining with FilmTracer LIVE/DEAD Biofilm viability kit (Invitrogen, L10316), and visualized using a confocal microscope and Z-stacked to construct 3D-images.

[3] = in vitro, FIG. 14A, read-out: half-life (converted)

Structure (SMILES) | half-life [1] | half-life [2, 3] | IC50 (ComD2 receptor) | half-life ([2]; counting active degradation product CSP1-E1A-des-K16K17-cyc(Dap6E10), read-out: effective half-life) | IC50 (ComD1 receptor)
CC[C@H](C)[C@H](NC(=O)[C@H](Cc1ccccc1)NC(=O)[C@H](CC(=O)O)NC(=O)[C@H](CCCNC(=N)N)NC(=O)[C@H](Cc1ccccc1)NC(=O)[C@H](Cc1ccccc1)NC(=O)[C@H](CCCCN)NC(=O)[C@H](CO)NC(=O)[C@H](CC(C)C)NC(=O)[C@H](CCCNC(=N)N)NC(=O)[C@H](CCSC)NC(=O)[C@H](C)N)C(=O)N[C@@H](CC(C)C)C(=O)N[C@@H](CCC(N)=O)C(=O)N[C@@H](CCCNC(=N)N)C(=O)N[C@@H](CCCCN)C(=O)N[C@@H](CCCCN)C(=O)O [CSP1-E1A, A-M-R-L-S-K-F-F-R-D-F-I-L-Q-R-K-K] | 90 min | 90 min | > 10000 nM | – | –
CC[C@H](C)[C@H](NC(=O)[C@H](Cc1ccccc1)NC(=O)[C@@H]1CCC(=O)NC[C@H](NC(=O)[C@H](CO)NC(=O)[C@H](CC(C)C)NC(=O)[C@H](CCCNC(=N)N)NC(=O)[C@H](CCSC)NC(=O)[C@H](C)N)C(=O)N[C@@H](Cc2ccccc2)C(=O)N[C@@H](Cc2ccccc2)C(=O)N[C@@H](CCCNC(=N)N)C(=O)N1)C(=O)N[C@@H](CC(C)C)C(=O)N[C@@H](CCC(N)=O)C(=O)N[C@@H](CCCNC(=N)N)C(=O)N[C@@H](CCCCN)C(=O)N[C@@H](CCCCN)C(=O)O [CSP1-E1A-cyc(Dap6E10), A-M-R-L-S-(Dap-F-F-R-E)-F-I-L-Q-R-K-K] (H-AMRLS[Dap]FFREFILQRKK-OH; lactam 6-10; N-terminus and C-terminus assumed) | – | – | 182 nM | > 240 min | 75.8 nM
CC[C@H](C)[C@H](NC(=O)[C@H](Cc1ccccc1)NC(=O)[C@H](CC(=O)O)NC(=O)[C@H](CCCNC(=N)N)NC(=O)[C@H](Cc1ccccc1)NC(=O)[C@H](Cc1ccccc1)NC(=O)[C@H](CCCCN)NC(=O)[C@H](CO)NC(=O)[C@H](CC(C)C)NC(=O)[C@H](CCCNC(=N)N)NC(=O)[C@H](CCSC)NC(=O)[C@@H](N)CCC(=O)O)C(=O)N[C@@H](CC(C)C)C(=O)N[C@@H](CCC(N)=O)C(=O)N[C@@H](CCCNC(=N)N)C(=O)N[C@@H](CCCCN)C(=O)N[C@@H](CCCCN)C(=O)O [CSP1, reference compound] | 90 min | – | – | – | –
CC[C@H](C)[C@H](NC(=O)[C@H](CCCNC(=N)N)NC(=O)[C@H](CCSC)NC(=O)[C@H](C)N)C(=O)N[C@@H](CO)C(=O)N[C@@H](CCCNC(=N)N)C(=O)N[C@H](C(=O)N[C@H](C(=O)N[C@@H](CC(C)C)C(=O)N[C@H](CC(=O)O)C(=O)N[C@@H](Cc1ccccc1)C(=O)N[C@@H](CC(C)C)C(=O)N[C@@H](Cc1ccccc1)C(=O)N[C@@H](CC(C)C)C(=O)N[C@@H](CCCNC(=N)N)C(=O)N[C@@H](CCCCN)C(=O)N[C@@H](CCCCN)C(=O)O)[C@@H](C)CC)[C@@H](C)CC [CSP2-E1Ad10, A-M-R-I-S-R-I-I-L-d-F-L-F-L-R-K-K] (H-AMRISRIIL[dD]FLFLRKK-OH; N-terminus and C-terminus assumed) | > 180 min | > 180 min | – | – | –
CC[C@H](C)[C@H](NC(=O)[C@H](CCCNC(=N)N)NC(=O)[C@H](CCSC)NC(=O)[C@@H](N)CCC(=O)O)C(=O)N[C@@H](CO)C(=O)N[C@@H](CCCNC(=N)N)C(=O)N[C@H](C(=O)N[C@H](C(=O)N[C@@H](CC(C)C)C(=O)N[C@H](CC(=O)O)C(=O)N[C@@H](Cc1ccccc1)C(=O)N[C@@H](CC(C)C)C(=O)N[C@@H](Cc1ccccc1)C(=O)N[C@@H](CC(C)C)C(=O)N[C@@H](CCCNC(=N)N)C(=O)N[C@@H](CCCCN)C(=O)N[C@@H](CCCCN)C(=O)O)[C@@H](C)CC)[C@@H](C)CC [CSP2-d10, E-M-R-I-S-R-I-I-L-d-F-L-F-L-R-K-K] (H-EMRISRIIL[dD]FLFLRKK-OH; N-terminus and C-terminus assumed) | 150 min | – | – | – | –
